Measured values from ChEMBL document CHEMBL1777760, “Inhibition studies with anions and small molecules of two novel β-carbonic anhydrases from the bacterial pathogen Salmonella enterica serovar Typhimurium” (Bioorg Med Chem Lett, 2011).

Molecular target: Carbonic anhydrase 1 (Homo sapiens, UniProt P00915)
Sequence (P00915 whole entry): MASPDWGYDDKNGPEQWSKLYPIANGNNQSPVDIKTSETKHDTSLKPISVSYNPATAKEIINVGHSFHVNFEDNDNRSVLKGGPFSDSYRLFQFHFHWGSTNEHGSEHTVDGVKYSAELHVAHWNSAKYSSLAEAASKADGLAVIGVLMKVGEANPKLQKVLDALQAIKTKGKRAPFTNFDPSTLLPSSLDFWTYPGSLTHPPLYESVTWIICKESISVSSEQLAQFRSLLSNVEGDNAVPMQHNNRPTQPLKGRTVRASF

| SMILES | Ki [µM] |
| --- | --- |
| CCN(CC)C(=S)S [DITIOCARB SODIUM] | 790 |
| NS(=O)(=O)O [SODIUM SULFIMIDATE] | 310 |
| F[B-](F)(F)F.[Na+] [SODIUM TETRAFLUOROBORATE] | > 200000 |
